Results: PubChem BioAssay (NCI)
Where “and” joins values, the source holds several entries; their conditions need not be identical. Identical values can stand only once.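 Step 1: Grow cells in 96-well plates. Step 2: Expose to compound for 48 hours at 5 concentrations. Step 3: Interpolate endpoints linearly; if unreached, use highest concentration. Here, GI50 denotes the concentration required for 50% inhibition of growth. Definition used: TGI = concentration required for complete inhibition of growth.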

Tests used:
Test in all cases: NCI anticancer screen, dose series, 48 h
COLO 205 colon = test system: COLO 205 colon
K-562 leukemia = test system: K-562 leukemia
NCI-H460 lung = test system: NCI-H460 lung
OVCAR-4 ovarian = test system: OVCAR-4 ovarian
PC-3 prostate = test system: PC-3 prostate
RPMI-8226 leukemia = test system: RPMI-8226 leukemia
UACC-257 melanoma = test system: UACC-257 melanoma
UO-31 renal = test system: UO-31 renal

Structure (SMILES) | TGI (COLO 205 colon) | TGI (K-562 leukemia) [µM] | TGI (NCI-H460 lung) [µM] | TGI (OVCAR-4 ovarian) | TGI (PC-3 prostate) [µM] | TGI (RPMI-8226 leukemia) [µM] | TGI (UACC-257 melanoma) | TGI (UO-31 renal) | GI50 (COLO 205 colon) | GI50 (K-562 leukemia) | GI50 (NCI-H460 lung) | GI50 (OVCAR-4 ovarian) | GI50 (PC-3 prostate) | GI50 (RPMI-8226 leukemia) | GI50 (UACC-257 melanoma) | GI50 (UO-31 renal)
C=C[C@@]1(C)CC(=O)[C@]2(O)[C@@]3(C)[C@@H](O)CCC(C)(C)[C@@H]3[C@H](O)[C@@H](OC(C)=O)[C@@]2(C)O1 | > 100 µM | > 100 | > 100 | > 100 µM | > 100 | 95.4 | > 100 µM | > 100 µM |  |  |  |  |  |  |  | 
CCOC(=O)C(=Cc1c(-c2ccccc2)[nH]c2ccccc12)C(=O)OCC | 16.3 µM | 24 | 13.6 | > 76.5 µM | 14.3 | 3.28 | 19.3 µM | 17.1 µM | 4.81 µM | 3.6 µM | 3.75 µM | 5.49 µM | 3.19 µM | 0.219 µM | 7.33 µM | 3.92 µM
CC(=O)Oc1ccc2c(c1)O/C(=C\c1ccc(O)cc1)C2=O | > 100 µM | > 100 | > 100 | > 100 µM | > 100 | > 100 | > 100 µM | > 100 µM |  |  |  |  |  |  |  | 
Cc1nc2cc(Nc3nc(Nc4ccc(F)cc4)nc(-c4ccc(Cl)cc4)n3)ccc2n1Cc1ccccc1 | 59.8 µM | > 100 | > 100 | 17.6 µM | > 100 | > 100 | > 100 µM | > 100 µM | 3.17 µM | 5.13 µM | 6.42 µM | 2.86 µM | 3.69 µM | 2.62 µM | 8.91 µM | 3.59 µM
COc1ccc(-c2nn3ncccc3c2-c2ccnc(Nc3cccc(C(F)(F)F)c3)n2)cc1 | > 25 µM | > 25 | > 25 | > 25 µM | > 25 | > 25 | > 25 µM | > 22.9 µM | 17 µM | 8.04 µM | 7.62 µM | 8.54 µM | 7.25 µM | 7.67 µM | 9.34 µM | 4.83 µM
COC12C=C/C(=C(/C(=O)OCc3csc(SC)n3)C(=O)CCCCCCCCC3(OC)C=C/C(=C(/C(=O)OCc4cnc(SC)s4)C(=O)CCCCCCCC1)O3)O2 (centres undefined) | > 100 µM | > 100 | > 100 | > 100 µM | > 100 | > 100 | > 100 µM | > 100 µM | 3.44 µM | 3.19 µM | 4.57 µM | 3.19 µM | 4.16 µM | 0.946 µM | 6.01 µM | 4.96 µM
CCn1c(-c2nonc2N)nc2c(C#CC(C)(C)O)ncc(OC[C@@H]3CCCN3)c21 | 7.62 µM | > 25 | > 22.6 | > 25 µM | > 25 | > 25 | > 25 µM | > 25 µM | 2.94 µM | 9 µM | 4.51 µM | 8.88 µM | 4.39 µM | 24.8 µM | > 25 µM | 13.4 µM
Cc1cc([C@H](C)Nc2nccc(N3C(=O)OC[C@@H]3[C@H](C)F)n2)ncc1-c1ccnc(C(F)(F)F)c1 | 62.9 µM | > 100 | > 100 | > 100 µM | > 100 | > 100 | > 100 µM | > 100 µM | 21.9 µM | 37.1 µM | 37.4 µM | 31.2 µM | 31.3 µM | 16.7 µM | 30.5 µM | 6.08 µM
COc1ccc2c(c1)c(-c1cc(-c3cn(C)c4ccc(OC)cc34)[nH]n1)cn2C | > 100 µM | > 100 | > 100 | > 100 µM | > 100 | > 100 | > 100 µM | > 100 µM | > 100 µM | > 100 µM | > 100 µM | > 100 µM | > 100 µM | > 100 µM | > 100 µM | > 100 µM
Cc1ccc(NCCNCC(O)CO)c2c(=O)c3ccccc3sc12 (centres undefined) | 3.02 µM | 3.26 | 2.43 | 4.68 µM | 3.22 | 6.83 | 3.58 µM | 2.48 µM | 1.32 µM | 1.52 µM | 0.776 µM | 1.86 µM | 1.58 µM | 2.48 µM | 1.87 µM | 1.12 µM
CCOc1cccc(/C=N/NC(=O)Cc2ccc(Nc3ccnc(C(F)(F)F)c3)cc2)c1O | > 100 µM | 15 | 13.5 | > 100 µM | 21.6 | 17.4 | > 100 µM | 20.7 µM | 3.9 µM | 2.25 µM | 1.71 µM | 0.824 µM | 1.88 µM | 0.519 µM | 6.84 µM | 0.986 µM
CC(=O)Nc1ccc2c(c1)CN1C(=O)c3ccccc3C1=N2 | > 100 µM | > 100 | > 100 | > 100 µM | > 100 | > 100 | > 100 µM | > 100 µM | > 100 µM | > 100 µM | > 100 µM | > 100 µM | > 100 µM | > 100 µM | > 100 µM | > 100 µM
Oc1cccc(-c2nc(N3CCOCC3)c3oc4ncccc4c3n2)c1 | 41.7 µM and > 72 µM | > 100 | > 100 | 4.12 µM and 2.9 µM | > 100 | > 38.3 | 3.39 µM and 3.79 µM | 0.571 µM and 0.449 µM | 10.5 µM and 17.8 µM | 1.35 µM and 2.18 µM | 0.359 µM and 0.419 µM | 0.354 µM and 0.228 µM | 0.0505 µM and 0.0462 µM | 0.237 µM and 0.298 µM | 0.593 µM and 0.421 µM | 0.0354 µM and 0.0315 µM
CC(C)(C)OC(=O)n1c(Cl)c(C(=O)N=C=S)c2ccccc21 | > 100 µM | > 100 | > 100 | > 100 µM | > 100 | 87.4 | > 100 µM | 35.8 µM | 33.6 µM | 47 µM | 39.6 µM | > 100 µM | 24.2 µM | 24.4 µM | 55.4 µM | 18.5 µM
COc1ccc(-c2cn(-c3cc(OC)c(OC)c(OC)c3)c(=O)n2-c2ccccc2)cc1 | > 100 µM | > 100 | > 100 | > 100 µM | > 100 | > 100 | > 100 µM | > 100 µM | > 100 µM | > 100 µM | > 100 µM | 51.7 µM | > 100 µM | > 100 µM | > 100 µM | > 100 µM
